Test results from the supplement of paper PMC3621838.
± gives the standard deviation of the averaged measurements.

Tested on: HEK293 NF-kB-luciferase reporter cells
Experiment: NF-kB luciferase reporter activity, robust Z-score vs plate median (robust Z-score (log luminescence)); higher = stronger NF-kB reporter activation
Settings: TNF treatment time 8.5 h, transfection time 72 h
Procedure: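 Primary screen of an Ambion Pre-miR miRNA mimic library (miRBase v8.0, 1.6 pmol/well, 384-well, duplicate) reverse-transfected into HEK293 cells stably expressing a 5x NF-kB firefly luciferase reporter. After 72 h the cells were treated with vehicle or TNF (40 ng/mL) for 8.5 h and luminescence was read (BriteLite). Raw luminescence was log-transformed and converted to a robust Z-score per plate: (x - plate median)/plate MAD. Sequence given is the mature miRNA strand of the double-stranded mimic.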

Sequence	NF-kB luciferase reporter activity (TNF 0 ng/mL)	NF-kB luciferase reporter activity (TNF 40 ng/mL)
CUUUUUGCGGUCUGGGCUUGC	0.334 ± 0.36	-0.65 ± 0.076
UCCUGUACUGAGCUGCCCCGAG	0.874 ± 0.074	1.15 ± 0.17
CGCAUCCCCUAGGGCAUUGGUGU	-0.887 ± 0.054	-0.479 ± 0.1
CAGCAGCACACUGUGGUUUGU	0.765 ± 0.17	0.0663 ± 0.052
UCAGUGCAUGACAGAACUUGGG	-0.378 ± 0.05	0.0929 ± 0.021
CAAAGUGCCUCCCUUUAGAGUGU	0.645 ± 0.51	0.811 ± 0.028
CUGUGCGUGUGACAGCGGCUGA	0.091 ± 0.43	-2.3857 ± 0.00042
AAUCCUUGGAACCUAGGUGUGAGU	0.598 ± 0.14	0.0708 ± 0.057
ACUUCACCUGGUCCACUAGCCGU	0.123 ± 0.3	0.86 ± 0.097
AACGCGCUUCCCUAUAGAGGG	-0.412 ± 0.44	0.629 ± 0.15
UGUGACAGAUUGAUAACUGAAA	-0.287 ± 0.28	-2.016 ± 0.016
CGGGUGGAUCACGAUGCAAUUU	0.731 ± 0.46	-2.0207 ± 0.0002
UCCCUGAGACCCUUUAACCUGUG	0.417 ± 0.12	1.32 ± 0.15
AUUGACACUUCUGUGAGUAG	-0.231 ± 0.69	-0.474 ± 0.021
AAAGUGCUGCGACAUUUGAGCGU	-0.434 ± 0.93	-1.06 ± 0.19
AAAGUGCAUCCUUUUAGAGUGUUAC	-1.8 ± 0.56	-0.116 ± 0.027
ACAAAGUGCUUCCCUUUAGAGU	-1.29 ± 0.15	-0.471 ± 0.097
UUAAGACUUGCAGUGAUGUUUAA	-0.92 ± 0.38	0.155 ± 0.07
AAUCCUUUGUCCCUGGGUGAGA	0.375 ± 0.22	0.638 ± 0.062
